Patent publication US20240293326A1, “CONTROLLED RELEASE FORMULATIONS FOR THE TREATMENT OF MALARIA” (KARICI DIAGNOSTICS INC., priority 2018, published 2024)

Assays:
[1] = Dissolution assay of tablets (release kinetics, SGF 2 h then SIF); assay type: physicochemical
Procedure: Dissolution assays of formulated monolithic tablets were done in simulated gastric fluid (SGF, pH 1.5) for 2 h and continued in simulated intestinal fluid (SIF, pH 6.8) as referred by USP method 40 (USP, 2017a).
The Pf (Pf, MD/Pf or CMS-Pf) release kinetics from different formulations (Pf, MD/Pf and CMS-Pf monolithic tablet dosage form) were recorded at 100 rpm and 37° C. using a Distek dissolution system 2100A (Betatek Inc., Markham, ON, Canada). At predetermined intervals, an established volume of samples (1 mL) was withdrawn from dissolution media, filtered (0.45 μm) and the released Pf was quantified by UV measurement at 280 nm.
CMS-Pf complexes were prepared as detailed above in Example 1. Briefly, CMS was dispersed at 8.5% in water. After homogenization and obtaining a homogenous suspension, an amount of 50 mL of CMS suspension was slowly added in 450 ml of Pf 21.5% previously dissolved in ethanol (60%). Similar operation was carried out for the CMS and for CMC (high viscosity) with a degree of substitution of 0.8. The final ratio Pf/carboxyl polymer (w/w) was respectively about of 96/4. The solutions were maintained under agitation at room temperature until spray-drying to obtain powders using the following parameters: 1) inlet temperature 150° C.; 2) outlet temperature 100° C.; 3) spray flow 500 L/h, and 4) aspirator setting at 38 m^3/h. During the drying process, the polymeric excipient/Pf suspension was continuously gently stirred to prevent sedimentation. The resulting powder was used to prepare monolithic tablets (12.5 mm diameter, 3.0 mm thickness) containing 400 mg of Pf by direct compaction. The kinetics of the drug release were recorded using the Distek™ dissolution (100 rpm) and the detection of Pf was monitored at 280 nm, first in a dissolution medium made of 1 L of SGF (pH 1.5) during 2 h. Then, the tablets were transferred in 1 L of SIF (pH 7.2) at 37° C.) (USP 32 method).
For each tablet, the dissolution was started in 1 L of SGF (pH 1.5) for 2h and followed in 1 L of SIF (pH 7.2) at 37° C., according to USP 32. The drug release kinetics were recorded using a Distek™ dissolution 2100A paddle system at 100 rpm.
The quantification of Pf was carried out at 280 nm, whereas the dosage of artemisinin was realized by spectrophotometry at 734 nm after filtration and dissolving artemisinin in the acetone/water (ratio 40:60) solvent containing ABTS (2,2′-azino-bis[3-ethylbenzothiazoline-6-sulphonate]).
Dissolution assay was done first in simulated gastric fluid (SGF, pH 1.5) for 2 h and then in simulated intestinal fluid (SIF, pH 6.8) as referred by USP method 40 (2017a). Release kinetics from different formulations were followed at 100 rpm and 37° C. using a Distek dissolution system 2100A (Betatek Inc., Markham, ON, Canada) with a Distek TCS 0200 (North Brunswick, NJ, USA). At predetermined intervals (0.5, 1, 2, 4, 6, 8 and10 h), released Pf and Arte were quantified using the appropriate method (described above).
For Pf dosage, a volume (5 mL) was withdrawn from dissolution media, properly filtered (0.45 μm) and diluted before absorbance measurement at 280 nm. To quantify released Arte, the insoluble precipitate was recuperated, washed several times to remove all Pf residues and quantified as previously described.
Dissolution assays was followed for each tablet first in simulated gastric fluid (SGF, pH 1.5) for 2 h and then continued in simulated intestinal fluid (SIF, pH 6.8) as referred by USP method 40 (USP, 2017c). Release kinetics from both formulation types (containing CMP-Pf or pCMC-Pf) were followed using a Distek dissolution system 2100A (Betatek Inc., Markham, ON, Canada) with a Distek TCS 0200 (North Brunswick, NJ, USA) at 100 rpm and 37° C. At predetermined intervals (0.5, 1, 2, 4, 6, 8, 10 and 12 h), released Pf and Arte from tablets were quantified by absorbancy at 280 nm (for Pf) and at 734 nm (for Arte, using ABTS•+ radical as probe reagent). […]

[2] = In vitro Arte and Pf interaction / stability in SGF (FTIR, NMR, antioxidant capacity); assay type: physicochemical; settings: SGF pH 1.5, 37° C., 2 h, one agent in the presence of the other
Procedure: Since both bioactive agents, Art and Pf will be used in a combination therapy in the same dosage form, there is a risk of molecular interactions to be considered. […] These interactions could also cause a moderate loss of activity due to the partial degradation of the endoperoxide bridge of artemisinin. […] After incubation, Arte was separated from Pf by decantation, washed and dried before FTIR and RMN analyses; whereas the Pf solution (in presence or not of Arte) was filtered and the antioxidant capacity was evaluated as previously described in the section of antioxidant properties. In vitro interaction of Arte with CMC-Pf was evaluated in SGF. Arte and CMC-Pf were incubated in SGF (pH 1.5, at 37° C.) separately or one in the presence of each other (FIG. 31).

[3] = monolithic tablets with CMC-Pf or pCMC-Pf, Example 6

Time to completed release of Artemisinin ([1]; bi-layer tablet, Artemisinin 100 mg + Explotab layer, Example 3): 60 min
Art released after 2 h in SGF ([1]; monolithic tablet, 400 mg CMC/Pf + 100 mg artemisinin, Example 4): about 45%
Time to complete release of Arte ([1]; monolithic tablet, in SIF, Example 5): 8 h
Time to complete release of Art ([1]; monolithic tablet, Example 4): 8 h
Arte released after 2 h in SGF ([1]; monolithic tablet, Example 5): about 51%
Arte released after 2 h in SGF [1, 3]: about 51%
Time to complete release of Arte [1, 3]: 8 h
Degradation in SGF (FTIR, 1H NMR) ([2]; listed as Arte): No degradation
Degradation in SGF (FTIR, 1H NMR) ([2]; listed as artemisinin): no degradation
Structure (SMILES): C[C@@H]1CC[C@H]2[C@@H](C)C(=O)O[C@@H]3O[C@@]4(C)CC[C@@H]1[C@]32OO4 [Artemisinin]
